This test addresses IDO1 (Homo sapiens, UniProt P14902). As to the kind of experiment: IDO1 Cellular Assay in HeLa Cells Stimulated with IFNγ. Conditions: IFNγ 100 ng/mL, 300 uM L-tryptophan, about 48 hours, fluorescence readout, read-out: IDO1 HELA Cell Assay, IC50. It counts as cell-based.

IDO1, sequence (P14902 whole entry): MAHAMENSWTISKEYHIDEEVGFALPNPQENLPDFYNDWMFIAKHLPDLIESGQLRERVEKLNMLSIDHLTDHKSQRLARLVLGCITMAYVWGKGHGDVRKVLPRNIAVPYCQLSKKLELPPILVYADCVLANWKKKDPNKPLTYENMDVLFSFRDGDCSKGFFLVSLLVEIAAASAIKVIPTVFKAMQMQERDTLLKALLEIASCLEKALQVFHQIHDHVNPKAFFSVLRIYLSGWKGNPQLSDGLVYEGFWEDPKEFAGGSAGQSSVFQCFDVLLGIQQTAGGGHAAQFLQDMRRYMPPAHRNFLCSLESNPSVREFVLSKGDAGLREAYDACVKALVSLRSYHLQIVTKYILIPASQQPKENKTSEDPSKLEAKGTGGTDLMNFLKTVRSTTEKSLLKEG

As a reminder, the IC50 is the concentration at which inhibition is half-maximal. For the compound `COc1c(F)cc(C2CCN(C(=O)Cn3nc(C(=O)N4C[C@@H](C)O[C@@H](C)C4)c4c3CCC4)CC2)cc1F` [Example 134, 1-[4-(3,5-difluoro-4-methoxyphenyl)piperidin-1-yl]-2-{3-[(2R,6S)-2,6-dimethylmorpholine-4-carbonyl]-5,6-dihydrocyclopenta[c]pyrazol-1(4H)-yl}ethan-1-one], the IC50 was found to be 82.1 nM.

Consider `C[C@@H]1CN(C(=O)c2nn(CC(=O)N3CCC(c4ccc(Cl)cc4F)CC3)c3c2CCC3)C[C@H](C)O1` [Example 135, 1-[4-(4-chloro-2-fluorophenyl)piperidin-1-yl]-2-{3-[(2R,6S)-2,6-dimethylmorpholine-4-carbonyl]-5,6-dihydrocyclopenta[c]pyrazol-1(4H)-yl}ethan-1-one], for which the 50% inhibitory concentration (IC50) was determined as 83.4 nM.

Regarding `Cc1cc(C)c(C2CCN(C(=O)Cn3nc(C(=O)N4C[C@@H](C)O[C@@H](C)C4)c4c3CCC4)CC2)cc1C` [Example 136, 2-{3-[(2R,6S)-2,6-dimethylmorpholine-4-carbonyl]-5,6-dihydrocyclopenta[c]pyrazol-1(4H)-yl}-1-[4-(2,4,5-trimethylphenyl)piperidin-1-yl]ethan-1-one], the IC50 was determined as 85 nM.

As to `COc1ccc(C2CCN(C(=O)Cn3nc(C(=O)N4C[C@@H](C)O[C@@H](C)C4)c4c3CCC4)CC2)c(F)c1` [Example 137, 2-{3-[(2R,6S)-2,6-dimethylmorpholine-4-carbonyl]-5,6-dihydrocyclopenta[c]pyrazol-1(4H)-yl}-1-[4-(2-fluoro-4-methoxyphenyl)piperidin-1-yl] ethan-1-one], the IC50 stood at 85 nM.

Consider `COc1ccc(C2CCN(C(=O)Cn3nc(C(=O)N4C[C@@H](C)O[C@@H](C)C4)c4c3CCC4)CC2)c(C)c1C` [Example 138, 2-{3-[(2R,6S)-2,6-dimethylmorpholine-4-carbonyl]-5,6-dihydrocyclopenta[c]pyrazol-1(4H)-yl}-1-[4-(4-methoxy-2,3-dimethylphenyl)piperidin-1-yl]ethan-1-one], for which the IC50 came out at 87.6 nM.

`Cc1cc(C2CCN(C(=O)Cn3nc(C(=O)N4C[C@@H](C)O[C@@H](C)C4)c4c3CCC4)CC2)cc(C)c1F` [Example 139, 2-{3-[(2R,6S)-2,6-dimethylmorpholine-4-carbonyl]-5,6-dihydrocyclopenta[c]pyrazol-1(4H)-yl}-1-[4-(4-fluoro-3,5-dimethylphenyl)piperidin-1-yl] ethan-1-one]: the IC50 was found to be 88.3 nM.

As to `C[C@@H]1CN(C(=O)c2nn(CC(=O)N3CCC(c4ccc(C(F)F)c(F)c4)CC3)c3c2CCC3)C[C@H](C)O1` [Example 140, 1-{4-[4-(difluoromethyl)-3-fluorophenyl]piperidin-1-yl}-2-{3-[(2R,6S)-2,6-dimethylmorpholine-4-carbonyl]-5,6-dihydrocyclopenta[c]pyrazol-1(4H)-yl}ethan-1-one], the IC50 is 89 nM.

Consider `C[C@@H]1CN(C(=O)c2nn(CC(=O)N3CCC(c4cc(F)cc(C(F)(F)F)c4)CC3)c3c2CCC3)C[C@H](C)O1` [Example 141, 2-{3-[(2R,6S)-2,6-dimethylmorpholine-4-carbonyl]-5,6-dihydrocyclopenta[c]pyrazol-1(4H)-yl}-1-{4-[3-fluoro-5-(trifluoromethyl)phenyl]piperidin-1-yl}ethan-1-one], for which the IC50 was determined as 97.4 nM.

`C[C@@H]1CN(C(=O)c2nn(CC(=O)N3CCC(c4ccc(C(F)F)cc4F)CC3)c3c2CCC3)C[C@H](C)O1` [Example 142, 1-{4-[4-(difluoromethyl)-2-fluorophenyl]piperidin-1-yl}-2-{3-[(2R,6S)-2,6-dimethylmorpholine-4-carbonyl]-5,6-dihydrocyclopenta[c]pyrazol-1(4H)-yl}ethan-1-one]: the IC50 is 99.5 nM.

Regarding `[2H]c1c([2H])c([2H])c(C2CCN(C(=O)Cn3nc(C(=O)N4C[C@@H](C)O[C@@H](C)C4)c4c3CCC4)CC2)c([2H])c1[2H]` [Example 143, 2-{3-[(2R,6S)-2,6-dimethylmorpholine-4-carbonyl]-5,6-dihydrocyclopenta[c]pyrazol-1(4H)-yl}-1-[4-(~2~H_5_)phenylpiperidin-1-yl]ethan-1-one], the IC50 is 102 nM.

Turning to `C[C@@H]1CN(C(=O)c2nn(CC(=O)N3CCC(c4ccc(F)c(F)c4)CC3)c3c2CCC3)C[C@H](C)O1` [Example 144, 1-[4-(3,4-difluorophenyl)piperidin-1-yl]-2-{3-[(2R,6S)-2,6-dimethylmorpholine-4-carbonyl]-5,6-dihydrocyclopenta[c]pyrazol-1(4H)-yl}ethan-1-one], the IC50 turned out to be 104 nM.

For `C[C@@H]1CN(C(=O)c2nn(CC(=O)N3CCC(c4ccccc4F)CC3)c3c2CCC3)C[C@H](C)O1` [Example 145, 2-{3-[(2R,6S)-2,6-dimethylmorpholine-4-carbonyl]-5,6-dihydrocyclopenta[c]pyrazol-1(4H)-yl}-1-[4-(2-fluorophenyl)piperidin-1-yl]ethan-1-one], the IC50 is 106 nM.

Consider `CCc1ccc(C2CCN(C(=O)Cn3nc(C(=O)N4C[C@@H](C)O[C@@H](C)C4)c4c3CCC4)CC2)cc1` [Example 146, 2-{3-[(2R,6S)-2,6-dimethylmorpholine-4-carbonyl]-5,6-dihydrocyclopenta[c]pyrazol-1(4H)-yl}-1-[4-(4-ethylphenyl)piperidin-1-yl]ethan-1-one], for which the IC50 is 107 nM.

As for `C[C@@H]1CN(C(=O)c2nn(CC(=O)N3CCC(c4ccc(C(F)(F)F)cc4F)CC3)c3c2CCC3)C[C@H](C)O1` [Example 147, 2-{3-[(2R,6S)-2,6-dimethylmorpholine-4-carbonyl]-5,6-dihydrocyclopenta[c]pyrazol-1(4H)-yl}-1-{4-[2-fluoro-4-(trifluoromethyl)phenyl]piperidin-1-yl}ethan-1-one], the IC50 came to 109 nM.

For `Cc1cc(Cl)cc(C2CCN(C(=O)Cn3nc(C(=O)N4C[C@@H](C)O[C@@H](C)C4)c4c3CCC4)CC2)c1` [Example 148, 1-[4-(3-chloro-5-methylphenyl)piperidin-1-yl]-2-{3-[(2R,6S)-2,6-dimethylmorpholine-4-carbonyl]-5,6-dihydrocyclopenta[c]pyrazol-1(4H)-yl}ethan-1-one], the IC50 was 117 nM.

Take `C[C@@H]1CN(C(=O)c2nn(CC(=O)N3CCC(c4cc(F)c(F)cc4F)CC3)c3c2CCC3)C[C@H](C)O1` [Example 149, 2-{3-[(2R,6S)-2,6-dimethylmorpholine-4-carbonyl]-5,6-dihydrocyclopenta[c]pyrazol-1(4H)-yl}-1-[4-(2,4,5-trifluorophenyl)piperidin-1-yl]ethan-1-one]: the IC50 was determined as 120 nM.

On to `C[C@@H]1CN(C(=O)c2nn(CC(=O)N3CCC(c4cc(F)ccc4F)CC3)c3c2CCC3)C[C@H](C)O1` [Example 150, 1-[4-(2,5-difluorophenyl)piperidin-1-yl]-2-{3-[(2R,6S)-2,6-dimethylmorpholine-4-carbonyl]-5,6-dihydrocyclopenta[c]pyrazol-1(4H)-yl}ethan-1-one], for which the IC50 is 122 nM.

For `C[C@@H]1CN(C(=O)c2nn(CC(=O)N3CCC(c4ccc(F)c(C(F)(F)F)c4)CC3)c3c2CCC3)C[C@H](C)O1` [Example 151, 2-{3-[(2R,6S)-2,6-dimethylmorpholine-4-carbonyl]-5,6-dihydrocyclopenta[c]pyrazol-1(4H)-yl}-1-{4-[4-fluoro-3-(trifluoromethyl)phenyl]piperidin-1-yl}ethan-1-one], the IC50 is 126 nM.

For the origin of these results see patent US12091405B2, “Substituted pyrazole compounds as indoleamine 2,3-dioxygenase inhibitors” (Merck Sharp & Dohme LLC, priority 2018, dated 2024).
